According to PubChem BioAssay AID743163 (Broad Institute, 2013):
Active and inactive are the calls of the source. No rule for the calls is given here.

System: Mycobacterium tuberculosis starved, CFU count by imaging
Assay: Starved Mycobacterium tuberculosis, CFU count by imaging, inhibitor dose, dry powder (AID 743163)
Details: stronger effect = lower value

SMILES	CFU (CFU at 64 uM, at 64 µM) [CFU]	CFU (at 10 µM)
CCOc1ccc(OC(=O)c2ccc3c(=O)n4c(nc3c2)CCC4)cc1	3.25e+07	3.2e+07 CFU (inactive)
CCOC(=O)c1cc(COc2c(Cl)cccc2Cl)on1	1.11e+06	3.08e+07 CFU
CSc1nsc(SCc2ccc(C(=O)Nc3cccc(C)c3)cc2)n1	12600	1.1e+06 CFU
Cn1c(NC(=O)c2ccccc2)nc2ccccc21	0	0 CFU
CCC(C)n1nnc2c(=O)oc3ccccc3c21 (stereo not drawn)	3.22e+06	4.71e+06 CFU
COC(=O)C(C)Oc1ccc2cc(-c3ccccc3)c(=O)oc2c1 (stereo not drawn)	4.57e+06	3.2e+07 CFU (inactive)
c1ccc(-c2n[nH]c(-c3ccccn3)n2)nc1	1.91e+06	6.09e+06 CFU
COc1ccc(CCNc2cc(-c3ccccc3)nc3ncnn23)cc1	2.5e+06	2.65e+06 CFU
COc1ccc(CNC(=O)Nc2ncc([N+](=O)[O-])s2)cc1	204000	2.15e+06 CFU
